# “Also recorded” adds a separate entry of the source.
# Assays:
# AML cell lines = assay: Cell cycle assay (PI staining); type: cell-based
# Description: 2×10^5 cells were harvested into 5 mL tubes and washed 3 times with PBS. Cell pellets were resuspended in 300 μL of cold PBS while vortexing. Next, cells were permeabilised with 700 μL of cold (−20° C.) 100% ethanol added dropwise while vortexing at slow speed. Cell suspensions were incubated on ice for 30 min, centrifuged at 300 g for 10 min and cell pellets resuspended in 100 μL PI solution (0.1% Triton X-100, 100 μg/mL DNAse-free RNAse A-Sigma, and 40 µg/mL PI in PBS). Cell suspensions were incubated at 37° C. for 30 min in the dark. 200 μL of PBS was added to each tube before analysis on an LSRFortessa (BD Biosciences) flow cytometer. Results were analysed with FCS Express 4 Flow Research Edition software (De Novo Software).
# For that, cells were plated at 10^6 cells/mL and treated with vehicle (DMSO) alone or a range of doses of EX 1 (0.1 nM, 1 nM, 10 nM and 100 nM) for 6 h, 8 h and 24 h. Cells were harvested for detection of ROS and superoxide anion (O2^·−) levels at 6 h and 24 h, for protein extraction at 8 h and 24 h, and for cell cycle analysis at 24 h.
# Therefore, cell cycle analysis was performed by PI staining in the cell lines after 24 h of treatment with a range of doses of EX 1, as described above.
# [1] = system: Caspase 3/7 activity in primary AML MNC samples; assay: Caspase-Glo 3/7 assay in primary AML samples; type: cell-based, human
# Description: Cryopreserved mononuclear cells (MNC from BM or leukapheresis samples) were thawed in a water bath at 37° C. and cell suspension transferred to a 50 mL tube. 20 mL of IMDM media (Sigma, 13390) supplemented with 20% FBS (JRH Biosciences), 50 U/mL DNase I (Sigma), 100 IU/mL penicillin (Sigma), 100 μg/mL streptomycin (Sigma) and 2 mM L-glutamine (Sigma) was added dropwise to the cells while the tube was being vortexed slowly (or mixed by hand). The cells were centrifuged at 400 g for 5 min, supernatant was discarded and the cells were washed once with 20 mL PBS. […] The next morning, viability was determined by trypan blue exclusion and samples with viability lower than 85% underwent dead cell removal by density gradient centrifugation as follows: 15 mL of Lymphoprep (AXIS-Shield) was transferred to a 50 mL tube and the cell suspension (25 mL) carefully overlayed (so as not to disturb the interface mixing with the Lymphoprep). […] Viability and cell density were determined by trypan blue exclusion and cells were plated for respective experiments as described in the Results section.
# 10^4 cells (10 μL) of each sample/treatment were aliquoted in triplicate wells of a 96-well plate (white wall OptiPlate 96, Perkin Elmer) containing 40 μL complete media. […] Luminescence was measured with a FLOUstar OPTIMA plate reader (BMG Labtech). […]
smiles,measurement,setting,value
"COc1cc(C(=O)c2c(C)oc3c(O)c(OC)ccc23)cc(OC)c1OC [EX 1, 2-Methyl-7-hydroxy-3-(3,4,5-trimethoxybenzoyl)-6-methoxybenzofuran]",cell cycle distribution (G2/M),"AML cell lines; HL60, KG1, OCI-AML3 and ME1, 24 h",G2/M cell cycle arrest
same,sub-G0 cell population,"AML cell lines; KG1 and HL60, 24 h",marked increases in the sub-G0 cell population; also recorded: increase in sub-G0 population starting at treatment with 10 nM
same,percentage of cells in G2/M and G1,"AML cell lines; MV4;11 and MOLM13, 24 h",dose-dependent reduction
same,sub-G0 population (apoptosis),"AML cell lines; MV4;11 and MOLM13, 24 h",underwent apoptosis as evidenced by the increase in sub-G0 population
same,"cell cycle distribution (sub-G0, G2/M)","AML cell lines; MV4;11 and MOLM13, 24 h, 10 nM",marked apoptosis induction (sub-G0 gate) and G2/M reduction
same,caspase 3/7 activity,"[1]; AML480, 24 h",some increase in caspase activity
same,caspase 3/7 activity compared to DMSO,"[1]; all the AML samples, 48 h",increase in caspase activity
